Measurements published in patent publication US20060079453A1, “Hla binding peptides and their uses” (priority 2002, published 2006).
Where two headings read alike, the source gives them in different places. No end group written: not given here.

How the values were obtained:
Assay in all cases: biochemical
Format in all cases: binding
[1] = biological target: HLA-DR DRB1*0101 (DR1) (Homo sapiens, UniProt P01903+P01911, A100R/D57E/F55L/F60I/F76Y/I96L/L162R/M171V/P40L/Q125E/R42F/V115G/Y59C)
[2] = biological target: HLA-DR DRB1*0401 (DR4) (Homo sapiens, UniProt P01903+P01911, A100K/A169T/F76Y/I96L/K127E/L162R/M171V/N62H/P40V/Q125Y/R42H/S133A/S149N/S66Y/V115G/V209L/W38E)
[3] = biological target: HLA-DR DRB1*0701 (DR7) (Homo sapiens, UniProt P01903+P01911, A100R/A102G/A103Q/D57E/D86V/E43K/F76Y/K127E/L162R/M171V/P40G/Q125H/Q99D/R33Q/R42Y/R54Q/S133A/S66F/T210M/V115G/Y107V/Y59L/Y89S)
[4] = biological target: HLA-DR DRB1*1302 (DR13) (Homo sapiens, UniProt P01903+P01911, A100E/A169T/K41T/L162R/M171V/P40S/Q125H/Q178H/Q39Y/Q99D/R42S/S66N/T262R/V115G/W38E/Y61H)
Sequence of HLA-DR DRB1*1302 (DR13) (P01903 26-254 limits assumed, other chains not shown): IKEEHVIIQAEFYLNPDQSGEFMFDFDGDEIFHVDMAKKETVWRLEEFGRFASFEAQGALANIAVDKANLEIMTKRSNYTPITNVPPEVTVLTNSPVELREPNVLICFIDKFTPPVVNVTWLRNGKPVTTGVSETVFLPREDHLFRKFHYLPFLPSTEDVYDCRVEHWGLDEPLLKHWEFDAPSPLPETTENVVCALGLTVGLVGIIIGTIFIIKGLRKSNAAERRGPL

[5] = biological target: HLA-DR DRB1*1501 (DR15) (Homo sapiens, UniProt P01903+P01911)
[6] = biological target: HLA-DR DRB5*0101 (DR51) (Homo sapiens, UniProt P01903+Q30154)
[7] = biological target: HLA-DR DRB4*0101 (DR53) (Homo sapiens, UniProt P01903+P13762, G164S)
[8] = biological target: HLA-DR DRB1*1101 (DR11) (Homo sapiens, UniProt P01903+P01911, A100R/A169T/A87E/I96F/K41T/L162R/M171V/P40S/Q125H/Q178H/Q39Y/Q99D/R42S/S66Y/T262R/V115G/W38E)
Sequence of HLA-DR DRB1*1101 (DR11) (P01903 26-254 limits assumed, other chains not shown): as above

[9] = biological target: HLA-DR DRB1*0301 (DR3) (Homo sapiens, UniProt P01903+P01911, A100K/A102G/A103R/A169T/F55Y/I96L/K41T/L162R/M171V/P40S/Q125H/Q178H/Q39Y/R42S/S66N/T106N/T262R/W38E/Y61H)
Sequence of HLA-DR DRB1*0301 (DR3) (P01903 26-254 limits assumed, other chains not shown): as above

KSKFNILSSPLFNNF
IC50 ([1]; read-out: DRB1 *0101): 0.8 nM | IC50 ([2]; read-out: DRB1 *0401): 16 nM | IC50 ([3]; read-out: DRB1 *0701): 65 nM | IC50 ([4]; read-out: DRBI *1302): 25 nM | IC50 ([5]; read-out: DRBI *1501): 5.9 nM | IC50 ([6]; read-out: DRB5 *0101): 0.032 µM

SKIMKLPKLPISNGK
IC50 ([4]; DRBI *1302): 6460 nM | IC50 ([5]; DRBI *1501): 3570 nM | IC50 ([7]; DRB4 *0101): 6740 nM | IC50 ([6]; DRB5 *0101): > 10.3 µM

SVTWIGAAPLILSRI
IC50 ([8]; read-out: DRB1 *1101): 2.2 µM | IC50 ([4]; read-out: DRBI *1302): 420 nM | IC50 ([7]; read-out: DRB4 *0101): 42 nM

DRTLMSAMTNLAALF
IC50 ([8]; read-out: DRB1 *1101): 2.37 µM | IC50 ([7]; read-out: DRB4 *0101): 57 nM | IC50 ([6]; read-out: DRB5 *0101): 26.1 µM

ALVRQGLAKVA
IC50 ([2]; DRB1 *0401): 190 nM | IC50 ([8]; DRB1 *1101): ≥ 200 µM | IC50 ([6]; DRB5 *0101): > 10 µM

LQDVVLELTPQTEID
IC50 ([1]; DRB1 *0101): 1490 nM | IC50 ([3]; DRB1 *0701): 5670 nM | IC50 ([8]; DRB1 *1101): > 31.6 µM | IC50 ([4]; DRBI *1302): 1140 nM | IC50 ([5]; DRBI *1501): > 33100 nM | IC50 ([7]; DRB4 *0101): 1120 nM | IC50 ([6]; DRB5 *0101): > 31.4 µM

KATLQDIVLHLEPQN
IC50 ([1]; DRB1 *0101): 1200 nM | IC50 ([2]; DRB1 *0401): 1990 nM | IC50 ([3]; DRB1 *0701): 9090 nM | IC50 ([8]; DRB1 *1101): 25.9 µM | IC50 ([4]; DRBI *1302): 603 nM | IC50 ([5]; DRBI *1501): 6970 nM | IC50 ([7]; DRB4 *0101): 159 nM | IC50 ([6]; DRB5 *0101): > 9.93 µM

RGGMVFELANSIVLP
IC50 ([8]; read-out: DRB1 *1101): > 50 µM | IC50 ([4]; read-out: DRBI *1302): 4.4 nM | IC50 ([5]; read-out: DRBI *1501): 94 nM | IC50 ([7]; read-out: DRB4 *0101): 411 nM | IC50 ([6]; read-out: DRB5 *0101): 0.413 µM

TYSVSFDSLFSAVKN
IC50 ([8]; read-out: DRB1 *1101): 5.98 µM | IC50 ([4]; read-out: DRBI *1302): 5890 nM | IC50 ([5]; read-out: DRBI *1501): 3220 nM | IC50 ([6]; read-out: DRB5 *0101): 0.061 µM

TCCYTCGTTVRLCIN
IC50 ([9]; read-out: DRB1 *0301): 19.9 µM | IC50 ([2]; read-out: DRB1 *0401): 719 nM | IC50 ([3]; read-out: DRB1 *0701): 63 nM

VYQLDIQSTKEDLRV
IC50 ([8]; read-out: DRB1 *1101): 7.35 µM | IC50 ([4]; read-out: DRBI *1302): 708 nM | IC50 ([7]; read-out: DRB4 *0101): 226 nM | IC50 ([6]; read-out: DRB5 *0101): 8.69 µM

DHRQLQLSISSCLQQLSLLM
IC50 ([1]; DRB1 *0101): 1360 nM | IC50 [9]: 42.7 µM | IC50 ([3]; DRB1 *0701): 736 nM | IC50 ([8]; DRB1 *1101): > 98.5 µM | IC50 ([4]; DRBI *1302): 69 nM | IC50 ([5]; DRBI *1501): 67 nM | IC50 ([7]; DRB4 *0101): 532 nM | IC50 ([6]; DRB5 *0101): 63.8 µM

IQQLLMGTVNIVCPT
IC50 ([8]; read-out: DRB1 *1101): 11.1 µM | IC50 ([4]; read-out: DRBI *1302): 9 nM | IC50 ([5]; read-out: DRBI *1501): 2010 nM | IC50 ([6]; read-out: DRB5 *0101): > 55.1 µM

AALAAAAAAKAAA
IC50 ([1]; read-out: DRB1 *0101): 1.9 nM | IC50 ([2]; read-out: DRB1 *0401): 12 nM | IC50 ([8]; read-out: DRB1 *1101): 2.22 µM | IC50 ([6]; read-out: DRB5 *0101): 0.067 µM

ALLKNYGLLYCFRIW
IC50 ([8]; read-out: DRB1 *1101): > 15.4 µM | IC50 ([4]; read-out: DRBI *1302): 10 nM | IC50 ([5]; read-out: DRBI *1501): 17 nM
